{"source": "paper PMC11274883", "about": "“Anticancer Effect of Pt^[sequence], Pt^II5MESS, Pt^II56MESS and Their Platinum(IV)-Dihydroxy Derivatives against Triple-Negative Breast Cancer and Cisplatin-Resistant Colorectal Cancer” (Cancers, 2024)", "assay_type_in_all_cases": "cell-based", "key": {"ADDP": {"test_system": "ADDP", "test": "WST-1 cytotoxicity, 72 h", "description": "(§1) Cells were seeded in 96-well flat-bottom culture plates at a concentration of 1000 cells per well. […] After 72 h, the medium was removed and replaced with new medium. The cell viability reagent WST-1 (10 µL, Roche Diagnostics, Indianapolis, IN, USA) was added to each well. After an hour, the absorbance was measured at 450 nm using a versatile microplate reader (Bio-strategy, Campbellfield, VIC, Australia). Three separate experiments were performed, each with n = 3 replicates. GraphPad prism 10 was used to calculate apparent IC50 values using the nonlinear regression model Y = Bottom + (Top-Bottom)/(1 + 10^(X-LogIC50)) where Top and bottom are plateaus in the y-axis (% survival)."}, "MCF−7": {"test_system": "MCF−7", "test": "WST-1 cytotoxicity, 72 h", "description": "as §1"}, "MDA−MB−231": {"test_system": "MDA−MB−231", "test": "WST-1 cytotoxicity, 72 h", "description": "as §1"}, "HT29 cells [1]": {"test_system": "HT29 cells", "test": "Cellular uptake of Pt by ICP-MS", "details": "for Intracellular Concentration: HT29, 3 µM; for Intracellular/extracellular ratio: HT29, extracellular 3 µM", "description": "(§2) A final concentration of 10^6 cells/well of MDA−MB−231 and HT29 cells were seeded in 6-well plates and incubated overnight to adhere. The cells were then treated with a final concentration of 3 µM of either Pt^II or Pt^IV complexes. After 0, 0.5, 1, 3, 6, 12, 24 or 30 h, the medium was removed, and the cells were washed three times with cold PBS and allowed to dry. Then, 400 µL of 69% HNO3 (Baseline grade nitric acid with PPB level reported impurities, Seastar Chemicals, Sidney, BC, Canada) was added to each well for 90 min to ensure complete digestion. […] Iridium 193 (^193Ir) was mixed online and introduced into the ICP-MS to check uptake efficiency and matrix interference. All ICP-MS parameters are described in Table S2 and elaborated in Method S3. The results represent an average of three different experiments run in triplicate (±SEM) and expressed as nmol/10^6 cells or µM/cell. Quantification of the cellular uptake of Pt was based on external standards (Certified Standard from Sigma-Aldrich, VIC, Australia) containing Internal standard Ir.\n(§3) Method S3. Cellular Uptake of Platinum(II) and (IV) complexes\n(§4) A final concentration of 10^6 cells/well of MDA−MB−231 and HT29 cells were seeded in 6-well plates and incubated overnight to adhere. The cells were then treated with a final concentration of 3 µM of either PtII or PtIV complexes. After 0, 0.5, 1, 3, 6, 12, 24 or 30 h, the medium was removed, and the cells were washed three times with cold PBS and allowed to dry. Then, 400 µL of 69% HNO3 (Baseline grade nitric acid with Instrument Quality Grade Nitric acid with ppb level reported impurities, Seastar Chemicals, Sidney, Canada) was added to each well for 90 mins to ensure complete digestion. The digests were then moved to trace -metal free 15 mL centrifuge tubes […]\n(§5) concentration of 3.5-4%. Iridium 193 (193Ir), selected as internal standard, has similar first ionisation potential and mass to Platinum 195 (195Pt). A concentration of 50 ppb 193Ir in 2% HNO3 solution was chosen for the Perkin Elmer NexION® Inductively Coupled Plasma Mass Spectrometer (ICP-MS) as it produced a steady state signal intensity of 600-800K counts per second. Mixing and injection of sample and internal standard solution was carried out using an ESI 7 port Valve system (Elemental Scientific, USA). A high-quality Solvent Flex 2 stop pump with 0.38 mm ID tubing was used in conjunction with the ICP-MS’s Peristaltic pump set at 20 […]\n(§6) standard both, at 0.25 mL/min) being 0.5 mL/min. The ICP-MS was tuned to high sensitivity settings to facilitate detection of low Pt concentrations in samples. This was done by adjusting the nebuliser gas flow between […] to achieve maximum Indium 115 intensity whilst maintaining an acceptable average oxide and doubly charged ratio of 1.64-2.24% and 1.17-1.69% respectively. The analysis method was set to peak hopping mode with a dwell time of […] and 45 sweeps through the mass spectrum per sample read. […]\n(§7) peak integration time of 4500 milliseconds and enabled the collection of numerous data points for peak integration thereby increasing accuracy. The ICP-MS was tuned daily, and its performance optimised to a set of suppliers recommended settings. Analysis was only carried out when optimal oxide and doubly charged ratios with high ionic sensitivity was achieved. All ICP-MS parameters are described in Table S2. The results represent an average of three different experiments run in triplicates (± SEM) and expressed as nmol/106 cells or µM/cell. Quantification of the cellular uptake of Pt was based on external standards (Certified Standard from Sigma-Aldrich NSW, Australia) containing Internal standard Ir. […]"}, "MDA−MB−231 cells [2]": {"test_system": "MDA−MB−231 cells", "test": "Cellular uptake of Pt by ICP-MS", "details": "for Intracellular Concentration: MDA−MB−231, 3 µM; for Intracellular/extracellular ratio: MDA−MB−231, extracellular 3 µM", "description": "as §2, §3, §4, §5, §6, §7"}, "HT29 cells [3]": {"test_system": "HT29 cells", "test": "TMRE mitochondrial membrane potential assay", "details": "complexes at IC50, FCCP 20 µM", "description": "(§8) Cells were then treated with an IC50 drug concentration for each complex. At 24, 48 or 72 h, DMEM was removed, and cells were washed with PBS. Then, cells were incubated with 1 µM tetramethylrhodamine, ethyl ester (TMRE) stain for 30 min. TMRE was then removed, and cells were washed twice with PBS (0.2% BSA), after which phenol red-free media was added. […] The cells were then stained with TMRE, as described above, and the resulting solution was scanned for fluorescence. Three independent experiments in triplicates were implemented."}, "MDA−MB−231 cells [4]": {"test_system": "MDA−MB−231 cells", "test": "TMRE mitochondrial membrane potential assay", "details": "complexes at IC50, FCCP 20 µM", "description": "as §8"}}}
{"compound": "Cc1cc2cccnc2c2ncccc12.N[C@H]1CCCC[C@@H]1N.O=[N+]([O-])[O-].O=[N+]([O-])[O-].[OH][Pt+2][OH]", "note": "[Pt^IV5MESS(OH)2, [Pt(5-methyl-1,10-phenanthroline)(1S,2S-diaminocyclohexane)(dihydroxy)](NO3)2]", "values": [{"measurement": "potency relative to cisplatin", "setting": "ADDP; ADDP, 72 h", "result": 15, "unit": "fold"}, {"measurement": "IC50", "setting": "ADDP; ADDP, 72 h, mean ± SEM", "result": "7.71 ± 1.31", "unit": "µM"}, {"measurement": "Selective cytotoxicity index (SCI)", "setting": "ADDP; IC50 MCF10A/IC50 ADDP", "result": 1.58}, {"measurement": "Selective cytotoxicity index (SCI)", "setting": "MCF−7; IC50 MCF10A/IC50 MCF−7", "result": 5.66}, {"measurement": "potency relative to cisplatin", "setting": "MCF−7; MCF−7, 72 h", "result": 15, "unit": "fold"}, {"measurement": "IC50", "setting": "MCF−7; MCF−7, 72 h, mean ± SEM", "result": "2.16 ± 1.53", "unit": "µM"}, {"measurement": "Selective cytotoxicity index (SCI)", "setting": "MDA−MB−231; IC50 MCF10A/IC50 MDA−MB−231", "result": 4.38}, {"measurement": "potency relative to cisplatin", "setting": "MDA−MB−231; MDA−MB−231, 72 h", "result": 5, "unit": "fold"}, {"measurement": "IC50", "setting": "MDA−MB−231; MDA−MB−231, 72 h, mean ± SEM", "result": "2.79 ± 1.39", "unit": "µM"}, {"measurement": "Intracellular Concentration", "setting": "HT29 cells [1]; 0 h", "result": 0.15, "unit": "nmol/10^6 cells"}, {"measurement": "Intracellular Concentration", "setting": "HT29 cells [1]; 0.5 h", "result": 0.17, "unit": "nmol/10^6 cells"}, {"measurement": "Intracellular Concentration", "setting": "HT29 cells [1]; 1 h", "result": 0.28, "unit": "nmol/10^6 cells"}, {"measurement": "Intracellular Concentration", "setting": "HT29 cells [1]; 3 h", "result": 0.33, "unit": "nmol/10^6 cells"}, {"measurement": "Intracellular Concentration", "setting": "HT29 cells [1]; 6 h", "result": 0.66, "unit": "nmol/10^6 cells"}, {"measurement": "Intracellular Concentration", "setting": "HT29 cells [1]; 12 h", "result": 5.05, "unit": "nmol/10^6 cells"}, {"measurement": "Intracellular Concentration", "setting": "HT29 cells [1]; 24 h", "result": 7.37, "unit": "nmol/10^6 cells"}, {"measurement": "Intracellular Concentration", "setting": "HT29 cells [1]; 30 h", "result": 7.85, "unit": "nmol/10^6 cells"}, {"measurement": "Intracellular/extracellular ratio", "setting": "HT29 cells [1]; 0 h", "result": 25.03}, {"measurement": "Intracellular/extracellular ratio", "setting": "HT29 cells [1]; 0.5 h", "result": 26.29}, {"measurement": "Intracellular/extracellular ratio", "setting": "HT29 cells [1]; 1 h", "result": 44.59}, {"measurement": "Intracellular/extracellular ratio", "setting": "HT29 cells [1]; 3 h", "result": 52.25}, {"measurement": "Intracellular/extracellular ratio", "setting": "HT29 cells [1]; 6 h", "result": 104.08}, {"measurement": "Intracellular/extracellular ratio", "setting": "HT29 cells [1]; 12 h", "result": 793.61}, {"measurement": "Intracellular/extracellular ratio", "setting": "HT29 cells [1]; 24 h", "result": 1158.37}, {"measurement": "Intracellular/extracellular ratio", "setting": "HT29 cells [1]; 30 h", "result": 1234.08}, {"measurement": "Intracellular Concentration", "setting": "MDA−MB−231 cells [2]; 0 h", "result": 0.16, "unit": "nmol/10^6 cells"}, {"measurement": "Intracellular Concentration", "setting": "MDA−MB−231 cells [2]; 0.5 h", "result": 0.22, "unit": "nmol/10^6 cells"}, {"measurement": "Intracellular Concentration", "setting": "MDA−MB−231 cells [2]; 1 h", "result": 0.17, "unit": "nmol/10^6 cells"}, {"measurement": "Intracellular Concentration", "setting": "MDA−MB−231 cells [2]; 3 h", "result": 0.25, "unit": "nmol/10^6 cells"}, {"measurement": "Intracellular Concentration", "setting": "MDA−MB−231 cells [2]; 6 h", "result": 0.29, "unit": "nmol/10^6 cells"}, {"measurement": "Intracellular Concentration", "setting": "MDA−MB−231 cells [2]; 12 h", "result": 1.19, "unit": "nmol/10^6 cells"}, {"measurement": "Intracellular Concentration", "setting": "MDA−MB−231 cells [2]; 24 h", "result": 1.31, "unit": "nmol/10^6 cells"}, {"measurement": "Intracellular Concentration", "setting": "MDA−MB−231 cells [2]; 30 h", "result": 2.37, "unit": "nmol/10^6 cells"}, {"measurement": "Intracellular/extracellular ratio", "setting": "MDA−MB−231 cells [2]; 0 h", "result": 26.14}, {"measurement": "Intracellular/extracellular ratio", "setting": "MDA−MB−231 cells [2]; 0.5 h", "result": 35.23}, {"measurement": "Intracellular/extracellular ratio", "setting": "MDA−MB−231 cells [2]; 1 h", "result": 27.69}, {"measurement": "Intracellular/extracellular ratio", "setting": "MDA−MB−231 cells [2]; 3 h", "result": 40.45}, {"measurement": "Intracellular/extracellular ratio", "setting": "MDA−MB−231 cells [2]; 6 h", "result": 46.47}, {"measurement": "Intracellular/extracellular ratio", "setting": "MDA−MB−231 cells [2]; 12 h", "result": 186.97}, {"measurement": "Intracellular/extracellular ratio", "setting": "MDA−MB−231 cells [2]; 24 h", "result": 205.97}, {"measurement": "Intracellular/extracellular ratio", "setting": "MDA−MB−231 cells [2]; 30 h", "result": 371.97}, {"measurement": "MtMp (mitochondrial membrane potential)", "setting": "HT29 cells [3]; HT29, 24 h", "result": 304.45, "unit": "RFU"}, {"measurement": "MtMp (mitochondrial membrane potential)", "setting": "HT29 cells [3]; HT29, 48 h", "result": 224.23, "unit": "RFU"}, {"measurement": "MtMp (mitochondrial membrane potential)", "setting": "HT29 cells [3]; HT29, 72 h", "result": 198.24, "unit": "RFU"}, {"measurement": "MtMp (mitochondrial membrane potential)", "setting": "MDA−MB−231 cells [4]; MDA−MB−231, 24 h", "result": 250.80, "unit": "RFU"}, {"measurement": "MtMp (mitochondrial membrane potential)", "setting": "MDA−MB−231 cells [4]; MDA−MB−231, 48 h", "result": 201.07, "unit": "RFU"}, {"measurement": "MtMp (mitochondrial membrane potential)", "setting": "MDA−MB−231 cells [4]; MDA−MB−231, 72 h", "result": 155.85, "unit": "RFU"}]}
